# Reference: patent US20030054053A1, “Methods and compositions for inhibiting the proliferation of prostate cancer cells” (priority 2001, published 2003)
# Assays:
# Assay type in all cases: cell-based, Human
# LNCaP cells = test: LNCaP cell proliferation, MTS assay
# Experimental: (§1) Human prostate cancer cell line, LNCaP (American Type Culture Collection (ATCC), Manassas, Va.), was grown in RPMI 1640 medium (Mediatech, Herndon, Va.) supplemented with 5% fetal bovine serum (FBS) and 5% CO2 at 37° C. until reaching approximately 50-70% confluence. The media were changed to serum-free RPMI 1640 at 24 hours prior to experiments being performed to deplete undesired steroids. […] Equivalent amounts of solvent were added to control cells.
# (§2) Five days later, cell proliferation was measured by MTS assay kit (Promega, Madison, Wis.), and PSA and hK2 levels in spent media were determined by the Tandem-E PSA kit (Hybritech Inc., San Diego, Calif.) or Mayo's hK2 assay (Zhang et al., 1999, Endocrin., 140:1665-71).
# androgen receptor = test: Immunocytochemical staining, whole cell androgen receptor in LNCaP cells; conditions: Mib alone versus absence of androgens
# Experimental: Twenty-four hrs later, LNCaP cell slides were washed with 1×PBS, and fixed in acetone at −20° C. for 10 min. The air-dried slides were treated with EtOH/chloroform (1:1) mixture for 5 min to permeate the cell membrane and air-dried again. The slides were washed with 1×TBST and stained with a monoclonal antibody against the human androgen receptor (Pharmingen) using a DAKO kit (DAKO). The androgen receptor staining was observed using microscopy (Zeiss, Thornwood, N.Y.). The density of androgen receptor in a nucleus (or a whole cell) and the area of the nucleus or the whole cell were quantified by KS400 software (Zeiss) provided by the Mayo Molecular Core Facility. The androgen receptor protein level in a nucleus or a whole cell was calculated by multiplication of the density of androgen receptor in the nucleus or the whole cell with the area of the nucleus or the whole cell, respectively. In each sample, 20 to 25 cells were analyzed. All results were analyzed by 2-tailed Student's t-test. A p<0.05 was accepted as the level of significance.
# hK2 = hK2 level in spent media of LNCaP cells (Mayo's hK2 assay); conditions: 1 nM Mib, five days
# Experimental: as §1, §2
# FKBP51 = FKBP51 protein level, Western blot in LNCaP cells; conditions: 1 nM Mib, 24 hrs
# Experimental: Cells were harvested and the whole cell lysate and nuclear extract were prepared as described (Zhu et al., 1999, Endocrin., 140:5451-4). Western blotting analysis was performed according to the protocol described (Id). A mouse antibody against human FKBP51 (1:5,000 dilution) (a gift from Dr. David Toft, Mayo Clinic), the human androgen receptor (1:1000 or 1:2000 dilution) (Pharmingen, San Diego, Calif.) or human Sp1 (1:2000 dilution) (Santa Cruz, Santa Cruz, Calif.) was used as the primary antibody. Ponceau S staining was used for monitoring protein loading and transfer efficiency (Mitchell et al., 1999, Cancer Res., 59:5892-5).
# PSA = PSA level in spent media of LNCaP cells (Tandem-E PSA kit); conditions: 1 nM Mib, five days
# Experimental: as §1, §2
SMILES,LNCaP cell growth in the presence of Mib (LNCaP cells; 1 nM Mib alone),androgen receptor level (androgen receptor),"androgen-stimulated cell growth (LNCaP cells; 1 nM Mib, five days, MTS)","androgen-stimulated cell growth at 75 μM (LNCaP cells; 1 nM Mib, silibin 75 μM)","cell proliferation in the absence of Mib (LNCaP cells; no Mib, five days, MTS)",hK2 accumulation stimulated by androgens (hK2),androgen-induced FKBP51 protein level (FKBP51),PSA accumulation stimulated by androgens (PSA)
"C[C@@H]1CC2=CC(=O)CC[C@@H]2[C@H]2CC[C@@]3(C)[C@@H](CC[C@]3(C)O)[C@@H]21 [Mib, mibolerone, reference compound]",increased significantly,increased the androgen receptor level significantly,,,,,,
COc1cc(C2Oc3cc([C@H]4Oc5cc(O)cc(O)c5C(=O)[C@@H]4O)ccc3OC2CO)ccc1O (some centres unmarked) [silibin],,,inhibited,fully suppressed,neither silymarin or silibin affected,inhibited,reduced,inhibited
